# Data published in US8901315B2, “Thienopyrazole derivative having PDE7 inhibitory activity” (Daiichi Sankyo Company, Limited, priority 2004, dated 2014).
# Counter-ions that a name gives are not always drawn.
# Key:
# [1] = target: PDE 7 (phosphodiesterase VII) (Homo sapiens (Human), UniProt Q13946); assay: PDE 7 inhibiting effect (3H-cAMP hydrolysis, PDE 7 active fraction from MOLT-4 cells); type: biochemical; settings: PDE 7 fraction from MOLT-4 cells, 0.064 μM cAMP, 10 μM rolipram, 2 hours at 25° C.; read-out: PDE7 IC50
# Procedure, shortened: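 PDE7 taken from the soluble fraction of human MOLT-4 T cells (homogenised in pH 7.5 Tris buffer, 100,000×G spin), partially purified on HiTrap Q with a 0–0.8 M NaCl gradient. Inhibition measured as ³H-cAMP hydrolysis, with product separated using Sephadex-QAE in 10 mM HEPES-Na pH 7.0.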
# [2] = target: PDE 4 (phosphodiesterase IV); assay: PDE 4 inhibiting effect (3H-cAMP hydrolysis, PDE 4 active fraction from Balb/c mouse liver); type: biochemical; settings: PDE 4 fraction from Balb/c mice liver, 0.064 μM cAMP, 2 hours at 25° C.; read-out: PDE4 IC50
# Procedure, shortened: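 PDE4 was taken from the soluble liver fraction of male Balb/c mice (12 weeks), purified on DEAE sepharose with a sodium acetate gradient. Inhibition was measured as hydrolysis of 3H-cAMP. The reaction was followed by Sephadex-QAE treatment in HEPES-Na pH 7.0.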
# PDE 7 (phosphodiesterase VII), sequence (Q13946 whole entry): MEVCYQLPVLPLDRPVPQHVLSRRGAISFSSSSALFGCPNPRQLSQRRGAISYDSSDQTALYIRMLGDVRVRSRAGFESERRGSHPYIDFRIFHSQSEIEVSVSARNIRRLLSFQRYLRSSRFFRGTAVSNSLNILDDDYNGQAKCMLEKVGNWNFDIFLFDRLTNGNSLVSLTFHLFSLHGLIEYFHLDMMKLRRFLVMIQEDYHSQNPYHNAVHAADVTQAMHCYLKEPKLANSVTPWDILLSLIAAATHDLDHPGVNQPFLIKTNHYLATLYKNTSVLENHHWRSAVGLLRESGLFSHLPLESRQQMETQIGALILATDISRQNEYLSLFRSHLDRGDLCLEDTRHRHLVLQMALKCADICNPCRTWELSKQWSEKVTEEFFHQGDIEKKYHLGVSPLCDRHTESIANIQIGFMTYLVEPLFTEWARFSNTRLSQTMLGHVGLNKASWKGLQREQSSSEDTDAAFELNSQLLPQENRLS
IC50 [1],IC50 [2],SMILES
84 nM,2.5 µM,"CCC(=O)N1CCc2cc(NC(=O)c3cc4c(C)nn(C5CCCCC5)c4s3)ccc21 [Example 21, 1-Cyclohexyl-3-methyl-N-(1-propionyl-2,3-dihydro-1H-indol-5-yl)-1H-thieno-[2,3-c]pyrazole-5-carboxamide]"
75 nM,5.5 µM,"Cc1nn(C2CCCCC2)c2sc(C(=O)Nc3cccc(S(=O)(=O)N4CCN(C)CC4)c3)cc12 [Example 110, 1-Cyclohexyl-3-methyl-N-{3-[(4-methyl-piperazinyl)sulfonyl]-phenyl}-1H-thieno[2,3-c]pyrazole-5-carboxamide HCl salt]"
